Results on 49 compounds are retold here after paper PMC12040169 (PLOS Biology, 2025).

A short description of this data set: in vitro. As to conditions: human, hela cells, % viability.
As a reminder, the viability is a read-out of living cells in per cent, often relative to untreated cells. On to `O=C(Nc1cccc(C(F)(F)F)c1)N[C@H]1[C@H](O)[C@@H](Oc2ccccc2)[C@@H]2OC[C@H]1O2` [CBK288811], for which the viability at 28.5 h, 10 µM stood at 106%.

Regarding `C=CCNC(=O)N[C@H]1[C@H](O)[C@@H](Oc2ccccc2)[C@@H]2OC[C@H]1O2` [CBK288812], the viability at 28.5 h, 10 µM was 90.5%.

Consider `COc1ccc(NC(=O)N[C@H]2[C@H](O)[C@@H](Sc3ccccc3)[C@@H]3OC[C@H]2O3)cc1` [CBK288813], for which the viability at 28.5 h, 10 µM was found to be 96.4%.

As to `O[C@H]1[C@H](NCc2ccccn2)[C@H]2CO[C@H](O2)[C@@H]1N1CCC(Cc2ccccc2)CC1` [CBK288814], the viability at 28.5 h, 10 µM is 87.2%.

Take `CCNC(=O)N[C@H]1[C@H](O)[C@@H](N(CC)CC)[C@@H]2OC[C@H]1O2` [CBK288816]: the viability at 28.5 h, 10 µM is 113%.

As for `COc1ccc(NC(=O)N[C@H]2[C@H](O)[C@@H](N3CCOCC3)[C@@H]3OC[C@H]2O3)cc1` [CBK288820], the viability at 28.5 h, 10 µM worked out at 101%.

For the compound `O=C(NC1CCCCC1)N[C@H]1[C@H](O)[C@@H](N2CCN(c3ccccc3)CC2)[C@@H]2OC[C@H]1O2` [CBK288822], the viability at 28.5 h, 10 µM turned out to be 95%.

`CN1CCN([C@H]2[C@@H]3OC[C@@H](O3)[C@@H](NCc3ccc(CO)o3)[C@@H]2O)CC1` [CBK288823]: the viability at 28.5 h, 10 µM came out at 91.5%.

As to `CN1CCN([C@H]2[C@@H]3OC[C@@H](O3)[C@@H](NCc3ccc(N(C)C)cc3)[C@@H]2O)CC1` [CBK288824], the viability at 28.5 h, 10 µM stood at 109%.

On to `O=C(Nc1ccc(F)cc1)N[C@H]1[C@H](O)[C@@H](N2CCCCC2)[C@@H]2OC[C@H]1O2` [CBK288826], for which the viability at 28.5 h, 10 µM came out at 98.5%.

With `COc1ccc(CN[C@H]2[C@H](O)[C@@H](N3CCCC3)[C@@H]3OC[C@H]2O3)cc1` [CBK288827], the viability at 28.5 h, 10 µM was found to be 88.6%.

On to `O=C(Nc1cccc(C(F)(F)F)c1)N[C@H]1[C@H](O)[C@@H](N2CCCC2)[C@@H]2OC[C@H]1O2` [CBK288828], for which the viability at 28.5 h, 10 µM was 105%.

Regarding `C=CCNC(=O)N[C@H]1[C@H](O)[C@@H](N2CCCC2)[C@@H]2OC[C@H]1O2` [CBK288829], the viability at 28.5 h, 10 µM stood at 92.6%.

As for `NC(=O)C1CCN([C@H]2[C@@H]3OC[C@@H](O3)[C@@H](NCc3ccc(F)cc3)[C@@H]2O)CC1` [CBK288830], the viability at 28.5 h, 10 µM was determined as 91.2%.

On to `O=S(=O)(Cc1noc([C@@H]2C[C@@H](O)CN2Cc2ccc(F)cc2)n1)c1ccc(F)cc1` [CBK288831], for which the viability at 28.5 h, 10 µM amounted to 118%.

For the compound `OCc1ccc(CN2C[C@H](O)C[C@H]2c2nc(-c3cnccn3)no2)o1` [CBK288832], the viability at 28.5 h, 10 µM came out at 91.9%.

For the compound `O=[N+]([O-])c1ccc(CN2C[C@H](O)C[C@H]2c2nc(-c3ccccc3)no2)cc1` [CBK288833], the viability at 28.5 h, 10 µM is 108%.

Consider `COCc1cn(C[C@H]2CC3CCN2C[C@@H]3C(=O)NC2CC2)nn1` (stereo partly shown) [CBK288835], for which the viability at 28.5 h, 10 µM is 98.6%.

Regarding `O[C@H]1CN[C@H](c2nc(-c3ccc(OC(F)(F)F)cc3)no2)C1` [CBK288836], the viability at 28.5 h, 10 µM was 112%.

Regarding `Cc1cccc(-c2noc([C@@H]3C[C@@H](O)CN3Cc3ccccn3)n2)c1` [CBK288837], the viability at 28.5 h, 10 µM was 98.2%.

For the compound `Cc1ccc(S(=O)(=O)Cc2noc([C@@H]3C[C@@H](O)CN3CC3CCCCC3)n2)cc1` [CBK288841], the viability at 28.5 h, 10 µM stood at 115%.

Regarding `COc1ccc(-c2noc([C@@H]3C[C@@H](O)CN3C3CCOCC3)n2)cc1` [CBK288844], the viability at 28.5 h, 10 µM was 83.7%.

Turning to `CC(=O)N1CCC(N2C[C@H](O)C[C@H]2c2nc(-c3cccc([N+](=O)[O-])c3)no2)CC1` [CBK288846], the viability at 28.5 h, 10 µM was 90.5%.

On to `OCc1ccc(CN2C[C@H](O)C[C@H]2c2nc(-c3ccc(F)cc3)no2)o1` [CBK288848], for which the viability at 28.5 h, 10 µM came to 106%.

Take `COc1ccccc1C(=O)N[C@H]1C[C@@H](c2nc(-c3cnccn3)no2)N(C)C1` [CBK288850]: the viability at 28.5 h, 10 µM amounted to 96%.

Consider `CN1C[C@@H](NC(=O)Nc2ccccc2)C[C@H]1c1nc(-c2cnccn2)no1` [CBK288851], for which the viability at 28.5 h, 10 µM worked out at 87.5%.

Regarding `COc1cccc(NC(=O)N[C@H]2C[C@@H](c3nc(-c4ccccn4)no3)N(C)C2)c1` [CBK288853], the viability at 28.5 h, 10 µM came to 108%.

As to `CN1C[C@@H](NC(=O)c2ccc3c(c2)OCO3)C[C@H]1c1nc(-c2ccc(Cl)cc2)no1` [CBK288854], the viability at 28.5 h, 10 µM is 90.6%.

As to `CN1C[C@@H](NC(=O)Nc2cccc(C#N)c2)C[C@H]1c1nc(-c2ccncc2)no1` [CBK288856], the viability at 28.5 h, 10 µM turned out to be 112%.

As for `CN1C[C@@H](NC(=O)c2cccnc2)C[C@H]1c1nc(-c2cccnc2)no1` [CBK288857], the viability at 28.5 h, 10 µM was determined as 86.7%.

As to `CN1C[C@@H](NC(=O)Nc2ccccc2)C[C@H]1c1nc(Cc2ccccc2)no1` [CBK288860], the viability at 28.5 h, 10 µM worked out at 85.2%.

For the compound `N#Cc1cccc(CN2C[C@H](O)C[C@H]2c2nc(-c3ccc4c(c3)OCO4)no2)c1` [CBK288866], the viability at 28.5 h, 10 µM was 90%.

As for `O[C@@H]1C[C@@H](c2nc(-c3ccc4c(c3)OCO4)no2)N(Cc2cc3ccccc3o2)C1` [CBK288868], the viability at 28.5 h, 10 µM is 83.9%.

`CN1C[C@@H](NC(=O)c2ccc3c(c2)OCO3)C[C@H]1c1nc(-c2ccccc2)no1` [CBK288876]: the viability at 28.5 h, 10 µM stood at 108%.

Regarding `CN1CCC(N2CCC[C@H]2c2nc(-c3ccnc(N4CCOCC4)c3)no2)CC1` [CBK288880], the viability at 28.5 h, 10 µM was determined as 94.4%.

Take `CC(C)N1CCC[C@H]1c1nc(-c2ccc(N3CCN(C)CC3)nc2)no1` [CBK288881]: the viability at 28.5 h, 10 µM worked out at 83.6%.

For the compound `NC(=O)C1CCN(c2ccc(-c3noc([C@@H]4CCCN4Cc4cccnc4)n3)cn2)CC1` [CBK288882], the viability at 28.5 h, 10 µM is 108%.

As for `CS(=O)(=O)Nc1cc(-c2noc([C@@H]3CCCN3Cc3ccccn3)n2)ccn1` [CBK288885], the viability at 28.5 h, 10 µM came to 87.3%.

On to `CC(=O)Nc1ccc(CN2CCC[C@H]2c2nc(-c3ccnc(NS(C)(=O)=O)c3)no2)cc1` [CBK288888], for which the viability at 28.5 h, 10 µM amounted to 109%.

In the case of `CS(=O)(=O)Nc1cc(-c2noc([C@@H]3CCCN3Cc3ccc(S(C)(=O)=O)cc3)n2)ccn1` [CBK288890], the viability at 28.5 h, 10 µM is 90.7%.

For the compound `CC(C)CN1CCC[C@H]1c1nc(-c2ccc(-n3ccnc3)nc2)no1` [CBK288894], the viability at 28.5 h, 10 µM turned out to be 88.5%.

For `c1csc(CN2CCC[C@H]2c2nc(-c3ccc(-n4ccnc4)nc3)no2)c1` [CBK288895], the viability at 28.5 h, 10 µM came out at 111%.

`O=C(O)c1ccc(CN2CCC[C@H]2c2nc(-c3ccc(F)cn3)no2)cc1` [CBK288896]: the viability at 28.5 h, 10 µM turned out to be 96.9%.

Turning to `COc1ccc(CN2CCC[C@H]2c2nc(-c3ccc(OC)nc3)no2)c(O)c1` [CBK288898], the viability at 28.5 h, 10 µM is 92%.

For `O[C@@H]1C[C@@H](c2nc(-c3ccccn3)no2)N(Cc2ccccc2)C1` [CBK288900], the viability at 28.5 h, 10 µM is 81.3%.

`Nc1ncncc1-c1noc([C@@H]2CCCN2c2ncccn2)n1` [CBK288901]: the viability at 28.5 h, 10 µM was 111%.

As for `CN(C)c1ccc(-c2noc([C@@H]3CCCN3C3CCOCC3)n2)cn1` [CBK288903], the viability at 28.5 h, 10 µM is 93.8%.

On to `O=C(NC[C@H]1O[C@@H](CC(=O)N2CCN(c3ccccn3)CC2)[C@H](O)[C@@H]1O)C1CC1` [CBK288904], for which the viability at 28.5 h, 10 µM was found to be 107%.

`O=C(C[C@@H]1O[C@H](CNCc2cccc(Cl)c2)[C@@H](O)[C@H]1O)N1CCOCC1` [CBK288905]: the viability at 28.5 h, 10 µM was found to be 77.3%.
